Test results published in PMC9636434, “Discovery of small molecule agonists of the Relaxin Family Peptide Receptor 2” (Communications Biology, 2022).
Values joined by “and” are separate entries in the source; they are usually repeats but may differ in a detail not shown here. Equal values may be shown once. Read-outs that look alike come from different tables or passages of the source.

How the values were obtained:
[1] = Pharmacokinetic study, single 30 mg/kg IP dose, plasma, liver and bone; assay type: in vivo, mouse; design: levels in plasma, liver, and bone: scale not given here; conditions: for Bone concentration / Liver concentration / Plasma concentration / concentration at 2 h / concentration at 12 h / concentration at 0.083 h / concentration at 0.25 h / concentration at 1 h: IP
Description: The concentration of compound in plasma, liver, and long bones was detected using liquid chromatography tandem mass spectrometry (LC-MS/MS). Samples were collected after a single intraperitoneal (IP) administration at 30 mg/kg, a single intravenous (IV) administration at 3 mg/kg, a single oral (PO) administration at 10 mg/kg, and a daily PO administration for 3 consecutive days at 10 mg/kg. The compound was formulated in 75% PEG300 + 25% of 40% aq. HPBCD for IV and PO administration and in 60% Phosal + 40% PEG300 for IP administration. All tissue samples were homogenized in water at a tissue weight to water volume ratio 1:3.
single dose IP administration. a Plasma, b liver and c bone profiles in female mice.
The actual concentration (ng/g) is the detected value (ng/mL) multiplied by 4. Drug
vehicle is 60% Phosal : 40% PEG300. 3 mice were used per time point. Results are
expressed as the mean ± SEM.

WT RXFP2 = target: T1, WT RXFP2 (Homo sapiens, UniProt Q8WXD0); experiment: HTRF cAMP assay in HEK293T cells transiently transfected with WT RXFP2; assay type: cell-based; conditions: for Emax: HEK-293T
T1 construct: FLAG (N); expressed in transfected cells; host or cells: HEK293T (transient)
Description: Fig. 2 6641 is an allosteric agonist of RXFP2. a HEK-RXFP2 cells co-treated with serial dilutions of INSL3 B dimer antagonist and 30 nM INSL3 or 0.28 µM 6641. HTRF cAMP dose-response inhibition curves were normalized to activity without antagonist co-treatment as 0% inhibition. b HTRF cAMP assay in HEK293T cells transiently transfected with WT or chimeric receptors. Chimera RXFP2-1 contains the extracellular domain of RXFP2 and the transmembrane domain of RXFP1, while chimera RXFP1-2 contains the extracellular domain of RXFP1 and the transmembrane domain of RXFP2. For each receptor, cAMP response induced by INSL3 and 6641 was normalized to FSK (2 µM) as 100% efficacy and DMSO vehicle as 0% efficacy. Emax and EC50 were calculated using four parameter nonlinear fit dose-response curves. Results are expressed as mean ± SEM of 3 independent experiments. Diagrams of the chimeric receptors were produced using GPCRdb.org[58], [59].
Complementary RXFP2-1 and RXFP1-2 chimeric receptors were used to further investigate the involvement of the RXFP2 extracellular and transmembrane domains on 6641 activity. RXFP2-1 has the extracellular domain of RXFP2 and transmembrane domain of RXFP1, and RXFP1-2 is its complement.
The HTRF Gs dynamic cAMP assay kit (CisBio, Bedford, MA) was used to measure intracellular cAMP accumulation in HEK293T cells (ATCC, Manassas, VA)[56]. […] The cell stock was verified mycoplasma free and authenticated by ATCC. Transient transfection was accomplished by treating cells in a 6-well plate with a mixture of 2 μg plasmid and 6 μL Lipofectamine 2000 (Invitrogen, Waltham, MA) per manufacturer’s protocol and incubating overnight. For cAMP measurement in 96-well format, HEK293T cells stably transfected with human RXFP2 (HEK-RXFP2), human RXFP1 (HEK-RXFP1), mouse Rxfp1 (HEK-Rxfp1) or transiently transfected with human RXFP1-RXFP2 chimeric receptors were seeded between 7500 and 30,000 cells per well, depending on cell line responsiveness, in serum-free DMEM medium and incubated overnight at 37 °C, 5% CO2. After 18 h, cells were treated with a titration of compound, 2 μM forskolin, or DMSO vehicle. Control wells were also treated with a titration of INSL3 (Phoenix Pharmaceuticals, Burlingame, CA) or human recombinant relaxin 2 (Peprotech, Cranbury, NJ). For the RXFP2 antagonist experiment, cells were co-treated with 0.28 μM compound or 30 nM INSL3 and a titration of the INSL3 B dimer antagonist[38],[39]. For the INSL3 allosteric modulation experiment, cells were co-treated with 0.025, 0.0025, or 0.00025 μM of compound and a titration of INSL3. Cells were incubated for 1 h at 37 °C, 5% CO2, and then kit cAMP-d2 and anti-cAMP antibody were added per manufacturer protocol. Plates were incubated for 1 h at room temperature and the signal was read on a CLARIOstar plate reader (BMG Labtech, Ortenberg, Germany) at 665 and 620 nm emission wavelengths.

[2] = Time 0.083 h, individual values (1)-(3)
[3] = Time 0.25 h, individual values (1)-(3)
[4] = Time 0.5 h, individual values (1)-(3)
[5] = Time 1 h, individual values (1)-(3)
[6] = Time 2 h, individual values (1)-(3)
[7] = Time 4 h, individual values (1)-(3)
[8] = Time 8 h, individual values (1)-(3)
[9] = Time 12 h, individual values (1)-(3)
[10] = single 30 mg/kg IP, female mice

T1 sequence (Q8WXD0 whole entry): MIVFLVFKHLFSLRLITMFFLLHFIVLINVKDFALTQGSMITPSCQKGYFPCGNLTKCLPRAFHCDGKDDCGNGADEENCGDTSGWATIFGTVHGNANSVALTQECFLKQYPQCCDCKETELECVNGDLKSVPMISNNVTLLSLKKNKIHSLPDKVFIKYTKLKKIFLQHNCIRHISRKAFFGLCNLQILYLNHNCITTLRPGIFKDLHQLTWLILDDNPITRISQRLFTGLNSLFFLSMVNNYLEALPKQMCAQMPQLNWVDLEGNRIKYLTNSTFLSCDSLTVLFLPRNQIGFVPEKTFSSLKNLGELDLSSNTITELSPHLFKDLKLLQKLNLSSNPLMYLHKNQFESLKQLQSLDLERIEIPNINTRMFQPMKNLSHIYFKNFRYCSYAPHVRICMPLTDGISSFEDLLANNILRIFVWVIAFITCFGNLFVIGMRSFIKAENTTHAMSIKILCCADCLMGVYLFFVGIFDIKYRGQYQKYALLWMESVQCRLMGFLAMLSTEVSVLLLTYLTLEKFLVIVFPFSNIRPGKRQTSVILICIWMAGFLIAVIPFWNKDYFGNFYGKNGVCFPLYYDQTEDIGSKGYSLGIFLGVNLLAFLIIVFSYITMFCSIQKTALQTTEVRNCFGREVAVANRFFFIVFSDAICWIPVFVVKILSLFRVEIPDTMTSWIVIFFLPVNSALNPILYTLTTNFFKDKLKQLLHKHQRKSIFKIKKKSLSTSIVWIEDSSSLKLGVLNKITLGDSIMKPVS

## O=C1Nc2ccc(-c3cc(C(F)(F)F)cc(C(F)(F)F)c3)cc2C(=O)N2CCN(C(=O)COc3ccc(OC(F)(F)F)cc3I)C[C@@H]12 [compound 6641]
[1]; [2]
  Bone concentration: 307 ng/g and 205 ng/g and 624 ng/g
  Liver concentration: 1132 ng/g and 1016 ng/g
  Plasma concentration: 42.7 ng/mL and 44.4 ng/mL
[1]; [3]
  Bone concentration: 618 ng/g and 42.7 ng/g and 69 ng/g
  Liver concentration: 1852 ng/g and 1212 ng/g
  Plasma concentration: 135 ng/mL and 133 ng/mL
[1]; [4]
  Bone concentration: 79.8 ng/g and 96 ng/g and 167 ng/g
  Liver concentration: 2324 ng/g and 2784 ng/g
  Plasma concentration: 259 ng/mL and 440 ng/mL
[1]; [5]
  Bone concentration: 204 ng/g and 273 ng/g and 532 ng/g
  Liver concentration: 4720 ng/g and 3880 ng/g
  Plasma concentration: 507 ng/mL and 673 ng/mL
[1]; [6]
  Bone concentration: 346 ng/g and 472 ng/g
  Liver concentration: 10000 ng/g and 4520 ng/g and 5600 ng/g
  Plasma concentration: 819 ng/mL and 1140 ng/mL
[1]; [7]
  Bone concentration: 708 ng/g and 1566 ng/g and 1740 ng/g
  Liver concentration: 15760 ng/g and 16960 ng/g
  Plasma concentration: 2340 ng/mL and 4780 ng/mL and 5300 ng/mL
[1]; [8]
  Bone concentration: 3162 ng/g and 948 ng/g and 3258 ng/g
  Liver concentration: 19080 ng/g and 9320 ng/g and 24920 ng/g
  Plasma concentration: 3040 ng/mL and 3010 ng/mL
[1]; [9]
  Bone concentration: 1716 ng/g and 1458 ng/g
  Liver concentration: 18480 ng/g and 15600 ng/g
  Plasma concentration: 3930 ng/mL and 2630 ng/mL
[1]; female, C57BL/6 J, mouse, bone, ip, 30 mg/kg, Time 2 h, individual values (1)-(3), read-out: Bone concentration
  concentration at 2 h: 492 ng/g
[1]; female, C57BL/6J, mouse, bone, ip, 30 mg/kg, Time 12 h, individual values (1)-(3), read-out: Bone concentration
  concentration at 12 h: 2830 ng/g
[1]; female, C57BL/6J, mouse, liver, ip, 30 mg/kg, Time 0.083 h, individual values (1)-(3), read-out: Liver concentration
  concentration at 0.083 h: 1060 ng/g
[1]; female, C57BL/6J, mouse, liver, ip, 30 mg/kg, Time 0.25 h, individual values (1)-(3), read-out: Liver concentration
  concentration at 0.25 h: 1800 ng/g
[1]; female, C57BL/6J, mouse, liver, ip, 30 mg/kg, Time 1 h, individual values (1)-(3), read-out: Liver concentration
  concentration at 1 h: 4920 ng/g
[1]; female, C57BL/6J, mouse, liver, ip, 30 mg/kg, Time 12 h, individual values (1)-(3), read-out: Liver concentration
  concentration at 12 h: 13600 ng/g
[1]; female, C57BL/6J, mouse, liver, ip, 30 mg/kg, Time 0.5 h, individual values (1)-(3)
  concentration at 0.5 h: 3040 ng/g
[1]; female, C57BL/6J, mouse, liver, ip, 30 mg/kg, Time 4 h, individual values (1)-(3)
  concentration at 4 h: 11000 ng/g
[1]; female, C57BL/6J, mouse, plasma, ip, 30 mg/kg, Time 0.083 h, individual values (1)-(3), read-out: Plasma concentration
  concentration at 0.083 h: 60.9 ng/mL
[1]; female, C57BL/6J, mouse, plasma, ip, 30 mg/kg, Time 0.25 h, individual values (1)-(3), read-out: Plasma concentration
  concentration at 0.25 h: 132 ng/mL
[1]; female, C57BL/6J, mouse, plasma, ip, 30 mg/kg, Time 1 h, individual values (1)-(3), read-out: Plasma concentration
  concentration at 1 h: 627 ng/mL
[1]; female, C57BL/6J, mouse, plasma, ip, 30 mg/kg, Time 2 h, individual values (1)-(3), read-out: Plasma concentration
  concentration at 2 h: 1160 ng/mL
[1]; female, C57BL/6J, mouse, plasma, ip, 30 mg/kg, Time 12 h, individual values (1)-(3), read-out: Plasma concentration
  concentration at 12 h: 2750 ng/mL
[1]; female, C57BL/6J, mouse, plasma, ip, 30 mg/kg, Time 8 h, individual values (1)-(3)
  concentration at 8 h: 2190 ng/mL
[1]; [10]
  duration of stable levels in plasma, liver, and bone: at least 12 h
  levels in plasma, liver, and bone: single/double digit
WT RXFP2; 6641, individual experiments, read-out: EC50 (1)-(3)
  EC50: 4.7 nM and 28 nM and 3.17 nM
WT RXFP2; 6641, mean (± SEM) of 3, read-out: EC50 (AVERAGE)
  EC50: 12 nM
WT RXFP2; individual experiments, FSK (2 µM) = 100% efficacy, DMSO = 0%, read-out: Emax (1)-(3)
  Emax: 91.1%
WT RXFP2; mean (± SEM) of 3, FSK (2 µM) = 100% efficacy, read-out: Emax (AVERAGE)
  Emax: 86.3%
WT RXFP2; individual experiments, FSK (2 µM) = 100% efficacy, DMSO = 0%
  Emax (1)-(3): 79.79% and 88%
